Assay results published in patent US20090170178A1, “Cell stimulating device and cell stimulating method” (priority 2003, published 2009).

Key:
Type in all cases: cell-based, mouse
[1] = test system: GABAA receptor β2 subunit mRNA in cultured granule cells; settings: stimulation at 1.0 and 100 Hz; FIG. 9C; MK801 25 μM, CNQX 10 μM
[2] = test system: cultured granule cells (release of NRG); assay: Release of NRG into conditioned medium, read by CREB phosphorylation in granule cells; settings: living cultured granule cells
Experimental: In the case of FIG. 6D, CREB phosphorylation following stimulation of each conditioned medium was confirmed using cerebellar granule cells. Serum-starved cerebellar granule cells were treated (for 5 to 10 minutes) with conditioned media that had been recovered from the culture products of pontine nuclei neurons and granule cells. The conditioned medium recovered from pontine nuclei neurons was used for stimulation in the cases of a, b, and c. In the cases of d, e, and f, a conditioned medium was prepared from the culture product of granule cells.
Stimulated granule cells were immobilized, followed by staining with a phospho-CREB antibody. The soluble forms that had been released after PMA stimulation (60 minutes) were concentrated and added to cultured granule cells. In panels c and f, the conditioned media should contain endogenous NRG and recombinant NRG. The difference between panels b and e indicates a function of NRG cleaved from recombinant mNRG. FIGS. 6E and 6F show the results of identification of an amino acid sequence that is necessary for proteolysis with the use of an ErbB and CREB phosphorylation assay system. The […] sequence was located above extracellular portions of transmembrane domains that were aligned in parallel. When the sequence was subjected to deletion or mutation of lysine to glycine, proteolysis efficiency was inhibited as shown in FIG. 6F. […]

[3] = test system: NMDA receptor NR2C subunit mRNA in cultured granule cells

Row | Compound | β2 transcription [1] | Obvious release of NRG [2] | Increase of NR2C transcription/expression [3] | NR2C transcription / expression of NR2C mRNA ([3]; level increased at 1 and 100 Hz, FIG. 9C, MK801 25 μM)
1 | N#Cc1cc2[nH]c(=O)c(=O)[nH]c2cc1[N+](=O)[O-] [CNQX] | blocked | – | – | –
2 | [Cl-].[K+] [KC1] | – | not observed | – | –
3 | C[C@]12N[C@H](Cc3ccccc31)c1ccccc12 [MK801] | blocked | – | blocked NR2C elevation in a particularly strong manner | strongly blocked
